# Assay results as given in patent US20240239788A1, “SMALL MOLECULE INHIBITORS OF KRAS G12D MUTANT” (Merck Sharp & Dohme LLC, priority 2021, published 2024).
# Counter-ions that a name gives are not always drawn. Like-named read-outs stand apart in the source and are kept apart here.
# Columns and labels:
# [1] = test system: AsPC-1 cells containing homozygous KRAS-G12D activating mutation; test: Cellular phospho-ERK assay with 10% FBS (Examples 107a-256); format: cell-based
# Protocol: 5% CO2 for 2 hours. […] Assay plates were read on a EnVision Multimode Plate Reader (PerkinElmer) and the ratio of p-Erk vs total Erk in each well was used as the final readout.
# [2] = biological target: KRAS protein containing G12D mutation (Homo sapiens (Human), UniProt P01116, G12D); test: SOS-catalyzed nucleotide exchange assay (GNE), TR-FRET; format: biochemical; settings: biotinylated KRAS G12D, SOS and GTP, 60-minute incubation
# Protocol: Compounds are added to this complex and then after a 60-minute incubation time the mixture is treated with SOS and unlabeled GTP. Small molecule inhibitors stabilize the Bodipy-GDP complex whereas the untreated protein rapidly exchanges Bodipy-GDP for unlabeled GTP resulting in reduced TR-FRET signal.
# This solution is referred to as biotinylated KRAS G12D stock solution.
# [3] = Homo sapiens, ASPC1, 2 h, read-out: IC50 (nM) pERK (cell with FBS 10%), AsPC-1 cells, 10% fetal bovine serum, 2 hours, ratio of p-Erk vs total Erk
# [4] = read-out: IC50 (nM) pERK (cell with FBS 10%), AsPC-1 cells, 10% fetal bovine serum, 2 hours, ratio of p-Erk vs total Erk
# Sequence of KRAS protein containing G12D mutation (P01116 other isoform, or with tags, fused parts or gaps G12D (already in the parent)): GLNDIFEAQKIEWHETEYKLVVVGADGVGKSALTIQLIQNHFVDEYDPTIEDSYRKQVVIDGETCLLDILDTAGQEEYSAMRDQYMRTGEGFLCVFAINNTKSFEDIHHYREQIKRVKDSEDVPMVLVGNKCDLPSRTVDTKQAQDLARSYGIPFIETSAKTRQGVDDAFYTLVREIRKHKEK
Structure (SMILES),"IC50 [1, 3]",IC50 [2],"IC50 [1, 4]"
"C[C@]12CC[C@H](CN(c3nc(OCC45CCCN4CCC(F)(F)C5)nc4c(F)c(-c5cc(O)cc6cccc(Cl)c56)c(F)cc34)C1)N2 (single isomer, unassigned) [Example 116b]",14000 nM,473 nM,
"C#Cc1cccc2cc(O)c(Cl)c(-c3c(F)cc4c(N5CC6CC[C@@](C)(C5)N6)nc(OC[C@@]56CCCN5C[C@H](F)C6)nc4c3F)c12 (single isomer, unassigned) [Ex. 143b]",,74.5 nM,2500 nM
"Cc1cc2[nH]nc(C)c2c(-c2c(F)cc3c(N4CC5CCC(C4)N5)nc(OC[C@@]45CCCN4C[C@H](F)C5)nc3c2F)c1C(F)(F)F (single isomer, unassigned) [Ex. 128b]",,232 nM,2850 nM
"C[C@]12CC[C@H](CN(c3nc(OC[C@@H]4CC[C@]5(CO)CCCN45)nc4c(F)c(-c5cc(O)cc6cccc(Cl)c56)c(F)cc34)C1)N2 [Ex. 243b, 5-chloro-4-(6,8-difluoro-2-(((3S,7aS)-7a-(hydroxymethyl)hexahydro-1H-pyrrolizin-3-yl)methoxy)-4-((1S,5R)-1-methyl-3,8-diazabicyclo[3.2.1]octan-3-yl)quinazolin-7-yl)naphthalen-2-ol]",20500 nM,23.1 nM,
"C[C@]12CCC(CN(c3nc(OC[C@]4(CN[C@H]5C[C@@H](O)C5)CC4(F)F)nc4c(F)c(-c5cc(O)cc6cccc(Cl)c56)c(F)cc34)C1)N2 (single isomer, unassigned) [Ex. 216b]",,804 nM,7120 nM
"CN1CCC[C@H]1COc1nc(N2C[C@H]3CC[C@@](C)(C2)N3)c2cc(F)c(-c3cc(O)cc4cccc(Cl)c34)c(F)c2n1 [Ex. 185, 5-chloro-4-(6,8-difluoro-4-((1S,5R)-1-methyl-3,8-diaza-bicyclo-[3.2.1]octan-3-yl)-2-(((S)-1-methyl-pyrrolidin-2-yl)meth-oxy)quinazolin-7-yl)-naphthalen-2-ol]",7040 nM,732 nM,
"COCCNC[C@@]1(COc2nc(N3C[C@H]4CC[C@@](C)(C3)N4)c3cc(F)c(-c4c(C(F)(F)F)c(C)cc5[nH]ncc45)c(F)c3n2)CC1(F)F [compound 205, (1S,5R)-3-(2-(((R)-2,2-difluoro-1-(((2-methoxyethyl)amino)methyl)cyclopropyl)methoxy)-6,8-difluoro-7-(6-methyl-5-(trifluoromethyl)-1H-indazol-4-yl)quinazolin-4-yl)-1-methyl-3,8-diazabicyclo[3.2.1]octan-8-ium 2,2,2-trifluoroacetate]",9380 nM,93.9 nM,
"C[C@]12CCC(CN(c3nc(OC[C@]4(CN[C@@H]5CC[C@H](O)C5)CC4(F)F)nc4c(F)c(-c5cc(O)cc6cccc(Cl)c56)c(F)cc34)C1)N2 (single isomer, unassigned) [Ex. 219a]",,3.27 nM,1250 nM
"Nc1cc2cccc(Cl)c2c(-c2c(F)cc3c(N4CC5CCC(C4)N5)nc(OC[C@@]45CCCN4C[C@H](F)C5)nc3c2F)n1 (single isomer, unassigned) [Ex. 189a]",672 nM,12.8 nM,
"Nc1nc2c(-c3c(Cl)cc4c(N5CC6CCC(C5)N6)nc(OC[C@@]56CCCN5C[C@H](F)C6)nc4c3F)c(F)cc(F)c2o1 (single isomer, unassigned) [Ex. 133b]",,1.16 nM,410 nM
"Cc1cc(N)nc(-c2c(F)cc3c(N4C[C@H]5CC[C@@H](C4)N5)nc(OC[C@@]45CCCN4C[C@H](F)C5)nc3c2F)c1C1CC1 [Ex. 237, 6-(4-((1R,5S)-3,8-diazabicyclo[3.2.1]octan-3-yl)-6,8-difluoro-2-(((2R,7aS)-2-fluorotetrahydro-1H-pyrrolizin-7a(5H)-yl)methoxy)quinazolin-7-yl)-5-cyclopropyl-4-methylpyridin-2-amine]",508 nM,57.6 nM,
"C#Cc1cccc2cc(O)cc(-c3c(F)cc4c(N5C[C@H]6CC[C@@](C)(C5)N6)nc(OC)nc4c3F)c12 (single isomer, unassigned) [Ex. 171a, TFA]",7720 nM,1260 nM,
